{"source": "ChEMBL document CHEMBL4627336", "about": "“Inhibitory effects of biseokeaniamide A against lipopolysaccharide-induced signal transduction” (Bioorg Med Chem Lett, 2020)", "key": {"RAW264.7 [1]": {"tested_on": "RAW264.7", "assay": "Inhibition of LPS-induced degraded IkappaBalpha regeneration in mouse RAW264.7 cells at 10 uM measured upto 90 mins by Western blot analysis", "type": "functional, cell-based"}, "RAW264.7 [2]": {"tested_on": "RAW264.7", "assay": "Inhibition of LPS-induced IL-6 production in mouse RAW264.7 cells at 1 to 30 uM preincubated for 1 hr followed by LPS stimulation and measured after 24 hrs by ELISA", "type": "functional, cell-based"}, "RAW264.7 [3]": {"tested_on": "RAW264.7", "assay": "Cytotoxicity against mouse RAW264.7 cells assessed as reduction in cell viability upto 30 uM incubated for 24 hrs in presence of LPS by MTT assay", "type": "cell-based", "conditions": "raw264.7, 24 h"}, "RAW264.7 [4]": {"tested_on": "RAW264.7", "assay": "Inhibition of LPS-induced IL-1beta production in mouse RAW264.7 cells preincubated for 1 hr followed by LPS stimulation and measured after 24 hrs by ELISA", "type": "functional, cell-based"}, "RAW264.7 [5]": {"tested_on": "RAW264.7", "assay": "Inhibition of LPS-induced TNFalpha production in mouse RAW264.7 cells at 1 to 30 uM preincubated for 1 hr followed by LPS stimulation and measured after 24 hrs by ELISA", "type": "functional, cell-based"}, "RAW264.7 [6]": {"tested_on": "RAW264.7", "assay": "Inhibition of LPS-induced IkappaBalpha degradation in mouse RAW264.7 cells at 1 to 30 uM incubated for 30 mins by Western blot analysis", "type": "functional, cell-based"}, "RAW264.7 [7]": {"tested_on": "RAW264.7", "assay": "Inhibition of LPS-induced iNOS expression in mouse RAW264.7 cells at preincubated for 1 hr followed by LPS stimulation and measured after 24 hrs by Western blot analysis", "type": "functional, cell-based"}, "RAW264.7 [8]": {"tested_on": "RAW264.7", "assay": "Inhibition of LPS-induced NO production in mouse RAW264.7 cells preincubated for 1 hr followed by LPS stimulation and measured after 24 hrs by Griess reagent based assay", "type": "functional, cell-based"}, "RAW264.7 [9]": {"tested_on": "RAW264.7", "assay": "Inhibition of LPS-induced iNOS expression in mouse RAW264.7 cells at 1 uM preincubated for 1 hr followed by LPS stimulation and measured after 24 hrs by Western blot analysis relative to control", "type": "functional"}, "RAW264.7 [10]": {"tested_on": "RAW264.7", "assay": "Inhibition of LPS-induced IL-6 production in mouse RAW264.7 cells at 1 uM preincubated for 1 hr followed by LPS stimulation and measured after 24 hrs by ELISA", "type": "functional, cell-based"}, "RAW264.7 [11]": {"tested_on": "RAW264.7", "assay": "Inhibition of LPS-induced IkappaBalpha degradation in mouse RAW264.7 cells at 1 uM incubated for 30 mins by Western blot analysis", "type": "functional, cell-based"}, "RAW264.7 [12]": {"tested_on": "RAW264.7", "assay": "Inhibition of LPS-induced IL-1beta production in mouse RAW264.7 cells at 1 uM preincubated for 1 hr followed by LPS stimulation and measured after 24 hrs by ELISA", "type": "functional, cell-based"}, "RAW264.7 [13]": {"tested_on": "RAW264.7", "assay": "Inhibition of LPS-induced NO production in mouse RAW264.7 cells at 0.1 to 10 uM preincubated for 1 hr followed by LPS stimulation and measured after 24 hrs by Griess reagent based assay", "type": "functional, cell-based"}, "RAW264.7 [14]": {"tested_on": "RAW264.7", "assay": "Inhibition of LPS-induced TNFalpha production in mouse RAW264.7 cells at 1 uM preincubated for 1 hr followed by LPS stimulation and measured after 24 hrs by ELISA", "type": "functional, cell-based"}}, "note": "Activity calls are given as the source filed them. The rule behind the calls is not given here. Where a SMILES comes first, the peptide text is derived from it. Bridges are numbered along the chain shown (N, C = ends). [ ]: non-standard residue; d: D form. The star is where a group is joined. NMeF = CN[C@@H](Cc1ccccc1)C(=O)O; NMeV = CN[C@H](C(=O)O)C(C)C; X2 = CC[C@H](C)CCCCC(=O)*; dDab = NCC[C@@H](N)C(=O)O; Dab = NCC[C@H](N)C(=O)O; Butyryl = CCCC(=O)*; X1 = CN(Cc1nccs1)*"}
{"smiles": "CCCC(=O)N(C)[C@H](C(=O)N1CCC[C@H]1C(=O)N(C)[C@@H](Cc1ccccc1)C(=O)N[C@@H](CC(C)C)C(=O)N(C)[C@H](C(=O)N(C)Cc1nccs1)C(C)C)C(C)C", "note": "(Butyryl-[NMeV]P[NMeF]L[NMeV]-X1)", "values": [{"measurement": "inhibition", "setting": "RAW264.7 [1]", "result": "Active"}, {"measurement": "inhibition", "setting": "RAW264.7 [2]", "result": "inactive"}, {"measurement": "Activity", "setting": "RAW264.7 [3]", "result": "Non-Toxic"}, {"measurement": "IC50", "setting": "RAW264.7 [4]", "result": 14.5, "unit": "µM"}, {"measurement": "inhibition", "setting": "RAW264.7 [4]", "result": "Dose-dependent effect"}, {"measurement": "inhibition", "setting": "RAW264.7 [5]", "result": "inactive"}, {"measurement": "inhibition", "setting": "RAW264.7 [6]", "result": "inactive"}, {"measurement": "inhibition", "setting": "RAW264.7 [7]", "result": "Dose-dependent effect"}, {"measurement": "IC50", "setting": "RAW264.7 [8]", "result": 6.47, "unit": "µM"}, {"measurement": "inhibition", "setting": "RAW264.7 [8]", "result": "Dose-dependent effect"}]}
{"smiles": "CC[C@H](C)CCCCC(=O)N[C@@H](CCN)C(=O)N[C@H](C(=O)N[C@@H](CCN)C(=O)N[C@H]1CCNC(=O)[C@H]([C@@H](C)O)NC(=O)[C@H](CCN)NC(=O)[C@H](CCN)NC(=O)[C@H](CC(C)C)NC(=O)[C@@H](Cc2ccccc2)NC(=O)[C@H](CCN)NC1=O)[C@@H](C)O", "note": "(X2-[Dab]T[Dab][Dab][Dab][dF]L[Dab][Dab]T; lactam 4-C)", "values": [{"measurement": "inhibition at 1 µM", "setting": "RAW264.7 [9]", "result": 100, "unit": "%"}]}
{"smiles": "CC[C@H](C)CCCCC(=O)N[C@@H](CCN)C(=O)N[C@H](C(=O)N[C@@H](CCN)C(=O)N[C@H]1CCNC(=O)[C@H]([C@@H](C)O)NC(=O)[C@H](CCN)NC(=O)[C@H](CCN)NC(=O)[C@H](CC(C)C)NC(=O)[C@@H](Cc2ccccc2)NC(=O)[C@@H](CCN)NC1=O)[C@@H](C)O", "note": "(X2-[Dab]T[Dab][Dab][dDab][dF]L[Dab][Dab]T; lactam 4-C)", "values": [{"measurement": "inhibition", "setting": "RAW264.7 [10]", "result": "Active"}, {"measurement": "inhibition", "setting": "RAW264.7 [11]", "result": "Active"}, {"measurement": "inhibition", "setting": "RAW264.7 [12]", "result": "Active"}, {"measurement": "inhibition", "setting": "RAW264.7 [13]", "result": "Active"}, {"measurement": "inhibition", "setting": "RAW264.7 [14]", "result": "Active"}]}
